ChEMBL document CHEMBL1201862, “PubChem BioAssay data set” (2004)
Calls of active or inactive are those of the source.

Columns and labels:
Escherichia coli = assay: microbe, parasite or virus in culture
[1] = loss of viability in HepG2 cells – cell-based, CellTiter-Glo, cherry-picked, cytotoxicity control for Shn3 inhibitor project, dose response (AID 624134); assay type: functional
[2] = Trypanosoma cruzi growth suppression in host cells – NIH3T3 host cells, beta-gal luminescence, confirmation (AID 2044); assay type: functional, cell-based;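 further: intracellular parasites grown in NIH/3T3 mouse fibroblasts as host cells; luminescent beta-galactosidase reporter signal from transgenic T. cruzi replicating inside host cells; inhibitors lower the luminescence signal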
[3] = reduction of Shn3 3'UTR-driven luciferase in osteoblasts – cell-based, Clone20 osteoblasts, firefly luciferase, cherry-picked, dose response (AID 624132); assay type: functional;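 further: firefly luciferase luminescence from reporter carrying the Shn3 3'UTR in osteoblasts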
[4] = NIH3T3 cell viability loss – ATP luminescence, mouse fibroblasts, counter-screen, dose response (AID 2010); assay type: functional, cell-based;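 further: cells exposed to compound for about 90 hours before reading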
[5] = non-specific 3'UTR reporter inhibition in Clone20-Shn3RL – cell-based, Renilla luciferase, cherry-picked, counter-screen for Shn3 inhibitor project, dose response (AID 624133); assay type: functional
Phospholipase A2 = Phospholipase A2 (Homo sapiens, UniProt P04054); assay type: functional;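 further: confirmatory dose-response counterscreen on phospholipase A2, testing hits that came from an ultra-high-throughput screen for ATG4B inhibitors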
Phospholipase A2, sequence (P04054 whole entry): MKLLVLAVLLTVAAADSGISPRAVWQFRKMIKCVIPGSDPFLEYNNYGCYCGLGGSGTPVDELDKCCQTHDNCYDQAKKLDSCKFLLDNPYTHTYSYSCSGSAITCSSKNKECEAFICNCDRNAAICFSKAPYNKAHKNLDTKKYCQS

Cysteine protease ATG4B = biological target: T1, Cysteine protease ATG4B (Homo sapiens, UniProt Q9Y4P1); assay type: functional;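 further: Fluorescence-based dose-response confirmation assay measuring inhibition of ATG4B activity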
T1 sequence (Q9Y4P1 whole entry): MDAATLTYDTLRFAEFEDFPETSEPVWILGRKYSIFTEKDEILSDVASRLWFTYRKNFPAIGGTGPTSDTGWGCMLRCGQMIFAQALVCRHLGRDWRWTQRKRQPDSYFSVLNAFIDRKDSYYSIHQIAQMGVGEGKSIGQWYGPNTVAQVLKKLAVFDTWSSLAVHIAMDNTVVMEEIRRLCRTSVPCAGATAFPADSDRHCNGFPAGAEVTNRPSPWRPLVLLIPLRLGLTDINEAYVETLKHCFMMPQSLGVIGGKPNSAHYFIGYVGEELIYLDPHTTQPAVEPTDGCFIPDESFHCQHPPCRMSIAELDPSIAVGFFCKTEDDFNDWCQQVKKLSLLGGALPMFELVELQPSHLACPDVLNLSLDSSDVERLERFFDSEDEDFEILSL

HeLa = assay: ATP-based viability loss in HeLa cells – cell-based, CellTiter-Glo luminescence, cherry-pick samples, cytotoxicity control for MITF activator project, dose response (AID 540259); assay type: functional; settings: Homo sapiens
[6] = biological target: T2, Mannose-6-phosphate isomerase (Homo sapiens, UniProt P34949); assay: MPI inhibition at elevated mannose 6-phosphate – biochemical, fluorescence intensity, high mannose 6-phosphate, primary screen (AID 1220)
T2 sequence (P34949 whole entry): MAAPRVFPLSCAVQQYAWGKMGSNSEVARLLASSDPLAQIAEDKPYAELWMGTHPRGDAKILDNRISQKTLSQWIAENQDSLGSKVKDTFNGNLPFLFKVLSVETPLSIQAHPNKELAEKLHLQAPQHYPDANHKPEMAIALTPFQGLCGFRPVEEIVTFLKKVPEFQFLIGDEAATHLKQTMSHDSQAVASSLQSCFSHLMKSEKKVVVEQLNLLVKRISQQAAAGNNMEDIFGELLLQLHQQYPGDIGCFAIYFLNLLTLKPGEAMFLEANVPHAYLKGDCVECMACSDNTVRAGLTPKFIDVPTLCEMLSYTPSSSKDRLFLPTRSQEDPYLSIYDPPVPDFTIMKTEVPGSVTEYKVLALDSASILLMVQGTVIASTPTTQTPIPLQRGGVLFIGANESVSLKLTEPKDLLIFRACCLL

[7] = biological target: Glucose-6-phosphate 1-dehydrogenase (Homo sapiens, UniProt P11413); assay: inhibition of Homo sapiens G6PD, dose series – biochemical, fluorescence, selectivity assay for P. falciparum G6PD inhibitor project, dose response (AID 504792); assay type: functional
Glucose-6-phosphate 1-dehydrogenase, sequence (P11413 whole entry): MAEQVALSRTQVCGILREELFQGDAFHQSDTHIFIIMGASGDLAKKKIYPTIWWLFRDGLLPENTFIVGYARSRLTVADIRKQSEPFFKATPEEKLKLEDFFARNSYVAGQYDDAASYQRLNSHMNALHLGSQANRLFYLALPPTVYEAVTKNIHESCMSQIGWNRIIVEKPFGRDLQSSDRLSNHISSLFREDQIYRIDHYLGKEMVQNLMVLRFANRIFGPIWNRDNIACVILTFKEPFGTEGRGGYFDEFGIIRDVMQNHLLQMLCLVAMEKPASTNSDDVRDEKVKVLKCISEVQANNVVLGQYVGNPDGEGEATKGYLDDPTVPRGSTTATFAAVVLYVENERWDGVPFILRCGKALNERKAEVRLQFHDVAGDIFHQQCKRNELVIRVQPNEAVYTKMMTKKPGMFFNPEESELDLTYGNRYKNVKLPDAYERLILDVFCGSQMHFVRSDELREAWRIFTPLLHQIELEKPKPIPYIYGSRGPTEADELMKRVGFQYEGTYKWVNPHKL

[8] = luciferase reporter signal suppression in cells – H4 neuroglioma cells, luminescence, dose response (AID 1990); assay type: functional, cell-based
[9] = Luminescence Cell-Based Dose Response HTS to Identify Inhibitors of 5'UTR Stem-Loop Driven Prion Protein mRNA Translation in H4 Neuroglioblastoma Cells. [Related pubchem assays: 1827 (Project Summary), 1813 (Primary HTS)]; assay type: functional
Nonstructural protein 1 = Nonstructural protein 1 (Influenza A virus, UniProt Q194T2); assay type: functional, Influenza A virus (A/California/07/2009(H1N1))
Nonstructural protein 1, sequence (Q194T2 whole entry): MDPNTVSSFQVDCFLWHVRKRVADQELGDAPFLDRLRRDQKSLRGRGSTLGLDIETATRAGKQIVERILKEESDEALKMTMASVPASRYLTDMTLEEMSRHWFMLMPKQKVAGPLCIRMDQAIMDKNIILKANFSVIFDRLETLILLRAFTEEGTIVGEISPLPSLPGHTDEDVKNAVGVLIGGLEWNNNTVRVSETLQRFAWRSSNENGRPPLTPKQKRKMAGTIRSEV

[10] = fluconazole-exposed Candida albicans growth modulators – fluorescence, retest, confirmation (AID 2467); assay type: functional, cell-based
[11] = alpha-synuclein stem-loop luciferase translation blockers – H4 neuroglioma cells, luminescence, confirmation (AID 1988); assay type: functional, cell-based
[12] = NIH-3T3 fibroblast cytotoxicity, dose response, cytotoxicity control, cell-based, fluorescence, Alamar Blue, secondary assay (AID 2327); assay type: functional;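 further: NIH-3T3 mouse fibroblasts cultured with fluconazole at 8 µg/mL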
[13] = biological target: FAD-linked sulfhydryl oxidase ALR (Homo sapiens, UniProt P55789); assay: ALR-catalysed DTT oxidation blockers – biochemical, H2O2 detection, luminescence, cherry-pick, dose response (AID 493248)
FAD-linked sulfhydryl oxidase ALR, sequence (P55789 whole entry): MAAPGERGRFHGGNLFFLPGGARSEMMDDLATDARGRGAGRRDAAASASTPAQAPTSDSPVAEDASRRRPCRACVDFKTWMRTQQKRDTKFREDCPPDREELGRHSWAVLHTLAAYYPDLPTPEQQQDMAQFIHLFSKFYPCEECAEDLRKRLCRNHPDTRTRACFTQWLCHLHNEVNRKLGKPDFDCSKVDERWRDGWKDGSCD

Vero = assay: cells; assay type: functional; settings: Chlorocebus sabaeus
[14] = system: Streptococcus sp. 'group A'; assay: Streptococcus pyogenes SK(-)GAS viability under kanamycin – luminescence, BacTiterGlo, confirmation, counter-screen for streptokinase expression inhibitor project, dose response (AID 1900); assay type: functional, organism-based
INS1 = assay: INS-1E survival protection against cytokine death – cell-based, luminescence, retest, dose response (AID 449756); assay type: functional; settings: Rattus norvegicus;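 further: cell death triggered by IL-1 beta plus TNF-alpha plus IFN-gamma mixture; protective hits raise ATP signal compared with cytokine alone wells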
Streptokinase A = biological target: T3, Streptokinase A (Streptococcus pyogenes serotype M1, UniProt P10520); assay: viability-normalized secreted streptokinase activity reduction – plasminogen activation absorbance, OD405, dose response (AID 1914); assay type: functional, Streptococcus pyogenes M1 GAS;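 further: secreted streptokinase activity via plasminogen activation per viability signal from cell pellet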
T3 sequence (P10520 whole entry): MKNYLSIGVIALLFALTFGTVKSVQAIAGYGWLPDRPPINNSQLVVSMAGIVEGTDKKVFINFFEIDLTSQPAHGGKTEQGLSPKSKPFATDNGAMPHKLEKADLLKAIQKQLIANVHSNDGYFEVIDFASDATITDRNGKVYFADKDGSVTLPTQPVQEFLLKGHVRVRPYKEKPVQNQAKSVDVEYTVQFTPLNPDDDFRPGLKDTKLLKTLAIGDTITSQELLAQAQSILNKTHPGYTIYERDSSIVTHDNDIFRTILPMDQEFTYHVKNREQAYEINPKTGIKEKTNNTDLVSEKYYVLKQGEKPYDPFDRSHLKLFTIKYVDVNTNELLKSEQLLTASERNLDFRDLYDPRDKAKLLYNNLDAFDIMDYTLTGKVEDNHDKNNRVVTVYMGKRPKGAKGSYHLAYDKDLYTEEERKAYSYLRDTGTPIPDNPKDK

[15] = Luminescence Cell-Based Dose Retest to Confirm Inhibitors of Cancer Stem Cells. [Related pubchem assays (depositor defined):AID2717, AID2721]; assay type: functional; settings: Homo sapiens
Streptococcus = assay: GAS UMAA2166 growth inhibition – luminescence, BacTiterGlo, counter-screen for streptokinase expression inhibitor project, dose response (AID 1915); assay type: functional, organism-based;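 further: potency for reduction of bacterial viability or growth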
[16] = CCR5-tropic HIV-1 fusion blockers – cell-based, CCR5-tropic Env, dose response (AID 2279); assay type: functional
[17] = biological target: Heat shock protein HSP 90-alpha (Homo sapiens, UniProt P07900); assay type: functional, organism-based
HEK293 = assay: EBV LMP1 TES2 canonical NF-kB signalling blockers – cell-based, HEK293, luciferase, cherry-pick, dose response (AID 588343); assay type: functional; settings: Homo sapiens
[18] = biological target: T4, Rac GTPase-activating protein 1 (Homo sapiens, UniProt Q9H0H5); assay: blockers of MgcRacGAP-driven Rac1 GTP hydrolysis – biochemical, ADP Hunter fluorescence, primary and confirmatory, confirmation (AID 624330); assay type: functional
T4 sequence (Q9H0H5 whole entry): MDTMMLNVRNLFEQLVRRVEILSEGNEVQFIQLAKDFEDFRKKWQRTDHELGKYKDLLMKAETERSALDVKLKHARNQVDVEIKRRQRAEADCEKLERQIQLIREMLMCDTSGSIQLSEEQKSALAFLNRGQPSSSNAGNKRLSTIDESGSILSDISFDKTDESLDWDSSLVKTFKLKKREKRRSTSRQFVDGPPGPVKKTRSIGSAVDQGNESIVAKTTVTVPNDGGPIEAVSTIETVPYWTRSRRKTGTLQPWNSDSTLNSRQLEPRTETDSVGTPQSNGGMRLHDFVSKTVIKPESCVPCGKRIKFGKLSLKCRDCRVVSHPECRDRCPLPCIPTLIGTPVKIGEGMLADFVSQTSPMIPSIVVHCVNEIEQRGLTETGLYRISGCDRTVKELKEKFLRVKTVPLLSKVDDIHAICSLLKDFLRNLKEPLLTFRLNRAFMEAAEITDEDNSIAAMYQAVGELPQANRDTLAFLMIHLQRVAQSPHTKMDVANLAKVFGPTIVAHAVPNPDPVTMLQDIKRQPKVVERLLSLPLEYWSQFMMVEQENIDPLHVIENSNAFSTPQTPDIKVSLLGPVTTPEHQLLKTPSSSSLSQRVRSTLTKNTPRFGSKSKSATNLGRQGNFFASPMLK

[19] = biological target: T5, Corticotropin-releasing factor receptor 2/Corticotropin-releasing factor-binding protein (Homo sapiens, UniProt P24387+Q13324); assay: activators of CRF receptor 2 with binding protein – uHTS hits, confirmation (AID 602473); assay type: functional; settings: read-out: EC50_Mean
T5 sequence (Q13324 whole entry): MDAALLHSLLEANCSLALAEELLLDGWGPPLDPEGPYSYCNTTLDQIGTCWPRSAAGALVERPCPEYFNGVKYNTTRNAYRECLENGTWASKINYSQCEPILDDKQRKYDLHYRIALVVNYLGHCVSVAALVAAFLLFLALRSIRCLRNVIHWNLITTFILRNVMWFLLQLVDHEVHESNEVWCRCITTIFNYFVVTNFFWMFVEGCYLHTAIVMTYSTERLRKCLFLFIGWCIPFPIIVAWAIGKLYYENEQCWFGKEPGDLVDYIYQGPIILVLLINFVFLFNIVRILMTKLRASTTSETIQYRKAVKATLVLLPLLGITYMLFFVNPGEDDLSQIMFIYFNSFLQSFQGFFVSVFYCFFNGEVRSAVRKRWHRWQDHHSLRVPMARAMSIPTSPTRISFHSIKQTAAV
T5 sequence (P24387 whole entry): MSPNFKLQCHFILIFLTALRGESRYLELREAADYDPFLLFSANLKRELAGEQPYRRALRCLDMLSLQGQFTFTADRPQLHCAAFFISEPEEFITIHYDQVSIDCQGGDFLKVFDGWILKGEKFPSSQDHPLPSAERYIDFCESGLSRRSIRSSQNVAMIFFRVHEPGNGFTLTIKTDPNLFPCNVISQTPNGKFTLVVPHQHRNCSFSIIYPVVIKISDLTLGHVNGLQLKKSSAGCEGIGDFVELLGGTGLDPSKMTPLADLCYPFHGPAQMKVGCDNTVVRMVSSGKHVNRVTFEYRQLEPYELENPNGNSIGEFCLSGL

In the case of COc1ccc(OC)c(S(=O)(=O)NCCc2ccccc2)c1, the AC50 (Escherichia coli) is reported as 28.4 µM (active).
With CCOc1cc(CNCc2ccccc2)ccc1OCc1ccc(Cl)cc1 the AC50 [1] was 19.7 µM (active), the EC50 [2] was 2.88 µM (active) and the AC50 [3] was 6.69 µM (active). For the same compound, the EC50 [4] was > 16 µM (not active) and the AC50 [5] was 5.41 µM (active).
For C[C@@H]1C(c2ccc(F)cc2)=NN(c2ccccc2)[C@H]1C(=O)N1CCOC1=O, the AC50 (Escherichia coli) was 33.5 µM (active).
In the case of CCc1ccc2c(c1)C(c1ccc([N+](=O)[O-])cc1)=NNC(c1ccccc1)=N2, the IC50 (Phospholipase A2) is reported as 0.357 µM (active) and the IC50 (Cysteine protease ATG4B) is reported as 0.399 µM (active).
In the case of COc1ccc2nc3ccccc3nc2c1, the AC50 (HeLa) is reported as 73.5 µM (active).
With C=CCOc1ccc(CNc2ccc3[nH]c(O)nc3c2)cc1OC the IC50 [6] was > 50 µM (not active) and the IC50 [7] was 53.4 µM (inactive).
In the case of Cc1ccc(S(=O)(=O)Nc2ccc(O)c3ncccc23)cc1, the EC50 [8] is reported as 15.1 µM (active), the AC50 [1] is reported as 41.4 µM (active) and the EC50 [9] is reported as > 30 µM (not active). For the same compound, the IC50 (Nonstructural protein 1) was 16 µM (active), the EC50 [10] was 2.12 µM (inconclusive) and the EC50 [11] was 10.6 µM (active). The EC50 [12] was 28.4 µM (active), the AC50 [13] was 5.2 µM (active) and the AC50 [3] was 1.55 µM (active). For the same compound, the AC50 [5] was 0.715 µM (active).
For CCCN1C(=O)C(=O)N(CC(=O)c2cc(C)n(C3CC3)c2C)C1=O, the AC50 (HeLa) was 62.6 µM (active).
With O=C(NCc1nc(-c2ccc(C(F)(F)F)cc2)no1)Nc1cc(Cl)cc(Cl)c1 the EC50 [2] was 2.43 µM (active), the CC50 (Vero) was 8.95 µM (active) and the EC50 [14] was 2.88 µM (active). The AC50 (INS1) was 7.49 µM (active), the EC50 (Streptokinase A) was > 150 µM (not active) and the AC50 [15] was 1.53 µM (active). For the same compound, the EC50 [4] was 4.69 µM (active) and the EC50 (Streptococcus) was 8.49 µM (active).
With O=C(COC(=O)Cn1cnc2ccccc2c1=O)NCC12CC3CC(CC(C3)C1)C2 the AC50 (Escherichia coli) was 32.8 µM (active).
For O=C(O)c1cc(-c2ccc(-c3c(-c4ccc5c(c4)OCO5)noc3-c3ccsc3)cc2)nc2ccccc12, the IC50 (Phospholipase A2) was 2.26 µM (active), the AC50 (HeLa) was 52.5 µM (active) and the EC50 [14] was 1.85 µM (active). The EC50 (Streptokinase A) was > 150 µM (not active), the IC50 (Cysteine protease ATG4B) was 6.81 µM (active) and the IC50 [16] was 37.7 µM (active). The EC50 (Streptococcus) was 3.63 µM (active).
In the case of CN1CCC(=NNC(=O)C(=O)Nc2cccc(Br)c2)CC1, the AC50 (Escherichia coli) is reported as 65.2 µM (active).
In the case of O=C(Oc1c(Cl)cc(Cl)c2cccnc12)c1cccc([N+](=O)[O-])c1, the AC50 [17] is reported as 14.3 µM (active), the AC50 (HEK293) is reported as 30.6 µM (active) and the EC50 [10] is reported as 0.119 µM (active). The EC50 [12] was 5.41 µM (active).
With COc1cc(N)c2ncccc2c1SC the IC50 [7] was > 80 µM (inactive) and the IC50 [18] was 41.3 µM (active).
With COc1ccc(C=Cc2ccc3ccccc3n2)c(OC)c1 the EC50 [19] was > 53 µM (inactive) and the AC50 (HEK293) was 14.5 µM (active).
In the case of CCc1cc(-c2nnn(CCC3COCCO3)c2CC)ccc1-c1cn(Cc2ccccc2)nn1 (centres undefined), the CC50 (Vero) is reported as 23.7 µM (active).
